In general, IC50 refers to the concentration that gives 50% inhibition. Higher therefore signals weaker potency.

The assay concerns HEK293 cells. Nature of the assay: Viability assay of HEK293 cells (CellTiter-Glo). It counts as cell-based. Conditions: Homo sapiens, 168 h, 7 days, 3 μM to 0.00015 μM, luminescence. As to the method: Viability Assay of HEK293 Cells
A viability assay was performed using the CellTiter-Glo™ Luminescent Cell Viability Assay (see Promega Corporation's Technical Publication No. 288, pp. 1-11 [revised 2.04] which is hereby incorporated by reference in its entirety). This assay is a homogeneous method of determining the number of viable cells in culture based on quantitation of the ATP present, which signals the presence of metabolically active cells. The assay is designed for use with multiwell formats, making it ideal for automated high-throughput screening (HTS), cell proliferation and cytotoxicity assays. The homogeneous assay procedure involves adding a single reagent (containing luciferase, luciferan substrate, and buffer) directly to cells cultured in serum-supplemented medium. Cell washing, removal of medium and multiple pipetting steps are not required. The system detects as few as 15 cells/well in a 384-well format in 10 minutes after adding reagent and mixing.
The homogeneous “add-mix-measure” format results in cell lysis and generation of a luminescent signal proportional to the amount of ATP present. The amount of ATP is directly proportional to the number of cells present in culture. The above-referenced assay generates a “glow-type” luminescent signal, produced by the luciferase reaction, which has a half-life generally greater than five hours, depending on cell type and medium used. The extended half-life eliminates the need to use reagent injectors and provides flexibility for continuous or batch mode processing of multiple plates. The unique homogeneous format avoids errors that may be introduced by other ATP measurement methods that require multiple steps.
HEK293 cells (human embryonic kidney cell line transformed by Adenovirus 5 fragments, ATCC-No. CRL 1573) were cultivated in Dulbecco's Modified Eagle Medium (DMEM) (1×) liquid (high glucose) (which includes L-Alanyl-L-Glutamine [a stabilized a form of L-Glutamine], 4500 mg/L glucose, and 110 mg/L sodium pyruvate) from Invitrogen Corporation (Invitrogen Catalog Number 31966-021 [now 10569-010] which is hereby incorporated by reference in its entirety), 5% Fetal Calf Serum (FCS, Sigma Cat-No. F4135 (FBS) which is hereby incorporated by reference in its entirety), and 100 Units/ml penicillin/100 μg/ml streptomycin(=Pen/Strep from Invitrogen Cat. No. 15140 which is hereby incorporated by reference in its entirety). For the assay the cells were seeded in 384 well plates, 5000 cells per well, in the same medium. The next day the test compounds were added in various concentrations ranging from 3 μM to 0.00015 μM (10 concentrations, 1:3 diluted). After 7 days the above viability assay was performed in accordance with the following steps: • Step 1: The cell-plate was equilibrated to room temperature for approximately 30 minutes and than the assay reagent was added. • Step 2: The contents were carefully mixed for 15 minutes to induce cell lysis. • Step 3: After 45 minutes the luminescent signal was measured in Victor 2, (scanning multiwell spectrophotometer, Wallac). Details: 1st Day: • Medium: Dulbecco's Modified Eagle Medium (DMEM) (1×) liquid (high glucose) (which includes L-Alanyl-L-Glutamine [a stabilized a form/source of L-Glutamine], 4500 mg/L glucose, and 110 mg/L sodium pyruvate) from Invitrogen Corporation (Invitrogen Catalog Number 31966-021 [now 10569-010]), 5% Fetal Calf Serum (FCS, Sigma Cat-No. F4135 (FBS)), and Pen/Strep (Invitrogen Cat. No. 15140). • HEK293 (ATCC-No. CRL 1573): 5000 cells in 60 μl per well of 384 well plate. (Greiner 781098, white plates) • Incubate 24 h at 37° C., 5% CO2 2nd Day: Induction (Substance Testing):
In general the dilution steeps are 1:3 a) Add 8 μl of 10 mM stock solution of compound to 72 μl DMSO b) dilute 9×1:3 (always 30 μl to 60 μl DMSO) in this DMSO dilution row (results in 10 wells with concentrations from 1000 μM to 0.06 μM) c) dilute each concentration 1: 4.8 (10 μl compound dilution to 38 μl medium) […]
(In general: Cellular ATP, detected with luciferase, serves as a proxy for viable cell number.)
With `O=C(Nc1nc(COc2ccc(CCCCn3ccnn3)cc2)cs1)c1ccc(SC(F)(F)F)cc1` [Example 52-7, N-{4-[4-(4-[1,2,3]Triazol-1-yl-butyl)-phenoxymethyl]-thiazol-2-yl}-4-trifluoromethylsulfanyl-benzamide], the IC50 is 0.005 to 0.5 µM.
With `Cc1c(F)cccc1NC(=O)c1coc(COc2ccc(CCCCn3ccnn3)cc2)n1` [Example 20, 2-[4-(4-[1,2,3]Triazol-1-yl-butyl)-phenoxymethyl]-oxazole-4-carboxylic acid (3-fluoro-2-methyl-phenyl)-amide] the figure was 0.5 to 3 µM.
For the molecule `Cc1ccc(C(=O)Nc2nc(COc3ccc(CCCCn4ccnn4)cc3)cs2)cc1` [Example 52-14, 4-Methyl-N-{4-[4-(4-[1,2,3]triazol-1-yl-butyl)-phenoxymethyl]-thiazol-2-yl}-benzamide], the IC50 is 0.005 to 0.5 µM.
With `O=C(Nc1nc(COc2ccc(CCCCn3ccnn3)cc2)cs1)c1ccccc1Cl` [Example 52-16, 2-Chloro-N-{4-[4-(4-[1,2,3]triazol-1-yl-butyl)-phenoxymethyl]-thiazol-2-yl}-benzamide] the figure was 0.5 to 3 µM; with `CN(C(=O)c1coc(COc2ccc(CCCCn3ccnn3)cc2)n1)c1ccc(OC(F)(F)F)cc1` [Example 30, 2-[4-(4-[1,2,3]Triazol-1-yl-butyl)-phenoxymethyl]-oxazole-4-carboxylic acid methyl-(4-trifluoromethoxy-phenyl)-amide], 0.005 to 0.5 µM.
`O=C(Nc1ccc(Cl)cc1)c1coc(COc2ccc(CCCCn3ccnn3)cc2)n1` [Example 6, 2-[4-(4-[1,2,3]Triazol-1-yl-butyl)-phenoxymethyl]-oxazole-4-carboxylic acid (4-chloro-phenyl)-amide] had an IC50 of 0.5 to 3 µM.
With `O=C(Nc1ccc(Cl)c(C(F)(F)F)c1)c1coc(COc2ccc(CCCCn3ccnn3)cc2)n1` [Example 27, 2-[4-(4-[1,2,3]Triazol-1-yl-butyl)-phenoxymethyl]-oxazole-4-carboxylic acid (4-chloro-3-trifluoromethyl-phenyl)-amide] the figure was 0.005 to 0.5 µM.
With `O=C(Nc1nc(COc2ccc(CCCCn3ccnn3)cc2)cs1)c1ccc(Cl)c(Cl)c1` [Example 52-9, 3,4-Dichloro-N-{4-[4-(4-[1,2,3]triazol-1-yl-butyl)-phenoxymethyl]-thiazol-2-yl}-benzamide], the IC50 lay in the range of 0.005 to 0.5 µM.
With `O=C(Nc1nc(COc2ccc(CCCCn3ccnn3)cc2)cs1)c1cccc(C(F)(F)F)c1` [Example 52-2, N-{4-[4-(4-[1,2,3]Triazol-1-yl-butyl)-phenoxymethyl]-thiazol-2-yl}-3-trifluoromethyl-benzamide] the figure was 0.5 to 3 µM.
With `O=C(Nc1nc(COc2ccc(CCCCn3ccnn3)cc2)cs1)c1ccc(F)c(Cl)c1` [Example 52-19, 3-Chloro-4-fluoro-N-{4-[4-(4-[1,2,3]triazol-1-yl-butyl)-phenoxymethyl]-thiazol-2-yl}-benzamide] the figure was 0.005 to 0.5 µM; with `Cc1cc(OCc2nc(C(=O)Nc3ccc(C(F)(F)F)cc3)co2)ccc1CCCCn1ccnn1` [Example 46, 2-[3-Methyl-4-(4-[1,2,3]triazol-1-yl-butyl)-phenoxymethyl]-oxazole-4-carboxylic acid (4-trifluoromethyl-phenyl)-amide], 0.005 to 0.5 µM; with `O=C(Nc1ccccc1F)c1coc(COc2ccc(CCCCn3ccnn3)cc2)n1` [Example 33, 2-[4-(4-[1,2,3]Triazol-1-yl-butyl)-phenoxymethyl]-oxazole-4-carboxylic acid (2-fluoro-phenyl)-amide], 0.005 to 0.5 µM.
Under `O=C(Nc1ccc(SC(F)F)cc1)c1coc(COc2ccc(CCCCn3ccnn3)cc2)n1` [Example 8, 2-[4-(4-[1,2,3]Triazol-1-yl-butyl)-phenoxymethyl]-oxazole-4-carboxylic acid (4-difluoromethylsulfanyl-phenyl)-amide] stands 0.005 to 0.5 µM.
On to `O=C(Nc1nc(COc2ccc(CCCCn3ccnn3)cc2)cs1)c1cccc(F)c1` [Example 52-25, 3-Fluoro-N-{4-[4-(4-[1,2,3]triazol-1-yl-butyl)-phenoxymethyl]-thiazol-2-yl}-benzamide], for which the IC50 is 0.005 to 0.5 µM.
Under `O=C(Nc1cc(F)cc(F)c1)c1coc(COc2ccc(CCCCn3ccnn3)cc2)n1` [Example 5, 2-[4-(4-[1,2,3]Triazol-1-yl-butyl)-phenoxymethyl]-oxazole-4-carboxylic acid (3,5-difluoro-phenyl)-amide] stands 0.005 to 0.5 µM.
Under `Cc1cc(OCc2nc(C(=O)Nc3cccc(Cl)c3)cs2)ccc1CCCCn1ccnn1` [Example 51, 2-[3-Methyl-4-(4-[1,2,3]triazol-1-yl-butyl)-phenoxymethyl]-thiazole-4-carboxylic acid (3-chloro-phenyl)-amide] stands 0.005 to 0.5 µM.
Under `Cc1cc(OCc2nc(C(=O)Nc3cccc(Cl)c3)co2)ccc1CCCCn1ccnn1` [Example 48, 2-[3-Methyl-4-(4-[1,2,3]triazol-1-yl-butyl)-phenoxymethyl]-oxazole-4-carboxylic acid (3-chloro-phenyl)-amide] stands 0.005 to 0.5 µM; under `Cc1cc(F)ccc1NC(=O)c1coc(COc2ccc(CCCCn3ccnn3)cc2)n1` [Example 25, 2-[4-(4-[1,2,3]Triazol-1-yl-butyl)-phenoxymethyl]-oxazole-4-carboxylic acid (4-fluoro-2-methyl-phenyl)-amide], 0.005 to 0.5 µM.
Consider `Cc1cc(C(=O)Nc2nc(COc3ccc(CCCCn4ccnn4)cc3)cs2)ccc1F` [Example 52-26, 4-Fluoro-3-methyl-N-{4-[4-(4-[1,2,3]triazol-1-yl-butyl)-phenoxymethyl]-thiazol-2-yl}-benzamide], for which the IC50 was 0.005 to 0.5 µM.
With `O=C(Nc1nc(COc2ccc(CCCCn3ccnn3)cc2)cs1)c1ccc(OC(F)(F)F)cc1` [Example 52-4, N-{4-[4-(4-[1,2,3]Triazol-1-yl-butyl)-phenoxymethyl]-thiazol-2-yl}-4-trifluoromethoxy-benzamide] the figure was 0.005 to 0.5 µM; with `Cc1ccc(NC(=O)c2coc(COc3ccc(CCCCn4ccnn4)cc3)n2)cc1` [Example 28, 2-[4-(4-[1,2,3]Triazol-1-yl-butyl)-phenoxymethyl]-oxazole-4-carboxylic acid p-tolylamide], 0.5 to 3 µM.
The molecule `O=C(Nc1ccc(F)c([N+](=O)[O-])c1)c1coc(COc2ccc(CCCCn3ccnn3)cc2)n1` [Example 21, 2-[4-(4-[1,2,3]Triazol-1-yl-butyl)-phenoxymethyl]-oxazole-4-carboxylic acid (4-fluoro-3-nitro-phenyl)-amide] registered an IC50 of 0.005 to 0.5 µM.
Molecule `O=C(Nc1ccc(Cl)cc1)c1csc(COc2ccc(CCCCn3ccnn3)cc2)n1` [Example 42, 2-[4-(4-[1,2,3]Triazol-1-yl-butyl)-phenoxymethyl]-thiazole-4-carboxylic acid (4-chloro-phenyl)-amide] came in with an IC50 of 0.005 to 0.5 µM.
With `O=C(Nc1nc(COc2ccc(CCCCn3ccnn3)cc2)cs1)c1ccc([N+](=O)[O-])cc1` [Example 52-1, 4-Nitro-N-{4-[4-(4-[1,2,3]triazol-1-yl-butyl)-phenoxymethyl]-thiazol-2-yl}-benzamide] the figure was 0.005 to 0.5 µM; with `O=C(Nc1nc(COc2ccc(CCCCn3ccnn3)cc2)cs1)c1ccc(Cl)c(F)c1` [Example 52-6, 4-Chloro-3-fluoro-N-{4-[4-(4-[1,2,3]triazol-1-yl-butyl)-phenoxymethyl]-thiazol-2-yl}-benzamide], 0.005 to 0.5 µM.
With `O=C(Nc1nc(COc2ccc(CCCCn3ccnn3)cc2)cs1)c1ccc(OC(F)F)cc1` [Example 52-22, 4-Difluoromethoxy-N-{4-[4-(4-[1,2,3]triazol-1-yl-butyl)-phenoxymethyl]-thiazol-2-yl}-benzamide] the figure was 0.005 to 0.5 µM.

For the origin of these results see patent US20060116407A1, “Amide derivatives” (priority 2004, published 2006).
